Experimental data from patent US20230391772A1, “METHODS AND COMPOSITIONS FOR TARGETED PROTEIN DEGRADATION” (Ranok Therapeutics (Hangzhou) Co. Ltd., priority 2020, published 2023).

How the values were obtained:
HSP90a protein = target: T1, HSP90a protein (Homo sapiens, UniProt P07900); experiment: HSP90α-binding fluorescent polarization (FP) assay, BODIPY-labeled RNK04010 probe; conditions: FP competition with RNK04010 (BODIPY-labeled), 5 nM, 300 min at 25° C.
T1 construct: purchased BPS Bioscience 50298
Outline: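 Competitive FP with N-terminal HSP90a; probe at 5 nM final, either BODIPY-labeled triazolone RNK04010 or FITC-geldanamycin. Test compounds as 2.5-fold dilutions from 20 μM to 5.2 nM. Incubated at 25 °C for 300 min (RNK04010) or 120 min (FITC-geldanamycin) before reading polarization.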

[1] = system: MIA PaCa-2 human pancreatic carcinoma; experiment: MIA PaCa-2 CCK-8 proliferation assay; format: cell-based; conditions: Homo sapiens, MIA PaCa-2, 72 h, MIA PaCa-2 cells
Outline: (§1)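 Compounds were tested as a 3-fold series from 20 μM down to 1.02 nM in CCK-8 absorbance assays. The lines used were NCI-H23 and NCI-H358, each with 1 KRAS(G12C) copy, and MIA PaCa-2 with 2 copies. Inhibition was derived relative to DMSO controls, with a no-cell blank subtracted.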

[2] = system: NCI-H358 human non-small cell lung cancer; experiment: NCI-H358 CCK-8 proliferation assay; format: cell-based; conditions: NCI-H358 cells, 72 hr
Outline: as §1

KRAS(G12C) = KRAS(G12C) (Homo sapiens, UniProt P01116, G12C); experiment: KRAS(G12C)/SOS1 homogeneous time-resolved fluorescence (HTRF) assay; parameters: purchased Cisbio 63ADK000CB16PEG; conditions: absence of GTP, 4° C. for 3 hr, read-out: KRAS (G12C) binding
Sequence of KRAS(G12C) (P01116 1-188 isoform P01116-2 G12C): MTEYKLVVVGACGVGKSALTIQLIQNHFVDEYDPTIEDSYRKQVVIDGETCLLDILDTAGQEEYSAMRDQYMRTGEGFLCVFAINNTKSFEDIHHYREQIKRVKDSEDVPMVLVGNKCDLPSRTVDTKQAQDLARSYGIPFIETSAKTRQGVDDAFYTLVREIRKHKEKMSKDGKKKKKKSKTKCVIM
Outline: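 HTRF kit measuring compound-induced block of KRAS(G12C)-SOS1 interaction without GTP. Compounds tested as 3-fold serial dilutions down to 1.02 nM, incubated with reaction components 3 h at 4 °C in sealed plates before fluorescence read.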

Row | IC50 (HSP90a protein) | EC50 [1] | EC50 [2] | IC50 (KRAS(G12C)) | SMILES
1 | 0.1 to 1 µM | > 1 µM | > 1 µM | 0.1 to 1 µM | C=C(F)C(=O)N1CCN(c2nc(OC[C@@H]3CCCN3CCCOCCC(=O)NCc3ccc(-n4c(O)nnc4-c4cc(CC)c(O)cc4O)cc3)nc3c2CCN(c2cccc4cccc(Cl)c24)C3)C[C@@H]1CC#N [Compound 161, 3-(3-((S)-2-(((7-(8-chloronaphthalen-1-yl)-4-((S)-3-(cyanomethyl)-4-(2-fluoroacryloyl)piperazin-1-yl)-5,6,7,8-tetrahydropyrido[3,4-d]pyrimidin-2-yl)oxy)methyl)pyrrolidin-1-yl)propoxy)-N-(4-(3-(5-ethyl-2,4-dihydroxyphenyl)-5-hydroxy-4H-1,2,4-triazol-4-yl)benzyl)propanamide]
2 | 0.1 to 1 µM | – | 0.1 to 1 µM | > 1 µM | C=CC(=O)N1CCN(c2nc(NCCC(=O)N3CCC(CN4CCN(Cc5ccc(-n6c(C(=O)NCC(F)(F)F)nnc6-c6cc(CC)c(O)cc6O)cc5)CC4)CC3)nc3c2CCN(c2cccc4cccc(Cl)c24)C3)C[C@H]1CC#N [Compound 80, (R)-4-(4-((4-((1-(3-((4-(4-acryloyl-3-(cyanomethyl)piperazin-1-yl)-7-(8-chloronaphthalen-1-yl)-5,6,7,8-tetrahydropyrido[3,4-d]pyrimidin-2-yl)amino)propanoyl)piperidin-4-yl)methyl)piperazin-1-yl)methyl)phenyl)-5-(5-ethyl-2,4-dihydroxyphenyl)-N-(2,2,2-trifluoroethyl)-4H-1,2,4-triazole-3-carboxamide, trifluoroacetic acid]
3 | > 1 µM | 0.1 to 1 µM | 0.1 to 1 µM | – | CC(=O)N1CCN(c2nc(NCCC(=O)N3CCC(Cc4ccc(CN(C)Cc5ccc(-n6c(C(=O)NCC(F)(F)F)nnc6-c6cc(C(C)C)c(O)cc6O)cc5)cc4)CC3)nc3c2CCN(c2cccc4ccccc24)C3)C[C@H]1CC#N [Compound 123, (R)-4-(4-(((4-((1-(3-((4-(4-acetyl-3-(cyanomethyl)piperazin-1-yl)-7-(naphthalen-1-yl)-5,6,7,8-tetrahydropyrido[3,4-d]pyrimidin-2-yl)amino)propanoyl)piperidin-4-yl)methyl)benzyl)(methyl)amino)methyl)phenyl)-5-(2,4-dihydroxy-5-isopropylphenyl)-N-(2,2,2-trifluoroethyl)-4H-1,2,4-triazole-3-carboxamide, trifluoroacetic acid]
4 | 0.1 to 1 µM | > 1 µM | 0.1 to 1 µM | – | CCC(=O)N1CCN(c2nc(NCCC(=O)N3CCC(Cc4ccc(CN(C)Cc5ccc(-n6c(O)nnc6-c6cc(C(C)C)c(O)cc6O)cc5)cc4)CC3)nc3c2CCN(c2cc(O)cc4ccccc24)C3)CC1 [Compound 63, trifluoroacetic acid]
5 | 0.1 to 1 µM | – | 0.1 to 1 µM | > 1 µM | CC(C)c1cc(-c2nnc(C(=O)NCC(F)(F)F)n2-c2ccc(CC3CCN(Cc4ccc(CNC(=O)CCNc5nc6c(c(N7CCN(C(=O)C(C)(C)C)CC7)n5)CCN(c5cc(O)cc7ccccc57)C6)cc4)CC3)cc2)c(O)cc1O [Compound 156]
6 | < 0.1 µM | > 1 µM | > 1 µM | > 1 µM | C=C(F)C(=O)N1CCN(c2nc(OC[C@@H]3CCCN3CCCOCCC(=O)NCc3ccc(-n4c(O)nnc4-c4cc(C(C)C)c(O)cc4O)cc3)nc3c2CCN(c2cccc4cccc(Cl)c24)C3)C[C@@H]1CC#N [Compound 160, 3-(3-((S)-2-(((7-(8-chloronaphthalen-1-yl)-4-((S)-3-(cyanomethyl)-4-(2-fluoroacryloyl)piperazin-1-yl)-5,6,7,8-tetrahydropyrido[3,4-d]pyrimidin-2-yl)oxy)methyl)pyrrolidin-1-yl)propoxy)-N-(4-(3-(2,4-dihydroxy-5-isopropylphenyl)-5-hydroxy-4H-1,2,4-triazol-4-yl)benzyl)propenamide]
7 | 0.1 to 1 µM | – | > 1 µM | > 1 µM | C=CC(=O)N1CCN(c2nc(OC[C@@H]3CCCN3C(=O)C3CCN(Cc4ccc(-n5c(O)nnc5-c5cc(C(C)C)c(O)cc5O)cc4)CC3)nc3c2CCN(c2cccc4cccc(C)c24)C3)C[C@@H]1CC#N [Compound 155, 2-((S)-1-acryloyl-4-(2-(((S)-1-(1-(4-(3-(2,4-dihydroxy-5-isopropylphenyl)-5-hydroxy-4H-1,2,4-triazol-4-yl)benzyl)piperidine-4-carbonyl)pyrrolidin-2-yl)methoxy)-7-(8-methylnaphthalen-1-yl)-5,6,7,8-tetrahydropyrido[3,4-d]pyrimidin-4-yl)piperazin-2-yl)acetonitrile, trifluoroacetic acid]
8 | > 1 µM | > 1 µM | > 1 µM | – | C=CC(=O)N1CCN(c2nc(NCCC(=O)N3CCC(Cc4ccc(CN(C)Cc5ccc(-n6c(C(=O)NCC(F)(F)F)nnc6-c6cc(C(C)C)c(O)cc6O)cc5)cc4)CC3)nc3c2CCN(c2cccc4ccccc24)C3)C[C@H]1CC#N [Compound 110, (R)-4-(4-(((4-((1-(3-((4-(4-acryloyl-3-(cyanomethyl)piperazin-1-yl)-7-(naphthalen-1-yl)-5,6,7,8-tetrahydropyrido[3,4-d]pyrimidin-2-yl)amino)propanoyl)piperidin-4-yl)methyl)benzyl)(methyl)amino)methyl)phenyl)-5-(2,4-dihydroxy-5-isopropylphenyl)-N-(2,2,2-trifluoroethyl)-4H-1,2,4-triazole-3-carboxamide, trifluoroacetic acid]
9 | < 0.1 µM | – | > 1 µM | – | C=CC(=O)N1CCN(c2nc(NCCC(=O)NCC3CCN(C(=O)C4CCN(Cc5ccc(-n6c(O)nnc6-c6cc(C(C)C)c(O)cc6O)cc5)CC4)CC3)nc3c2CCN(c2cccc4ccccc24)C3)C[C@H]1CC#N [Compound 101, (R)-3-((4-(4-acryloyl-3-(cyanomethyl)piperazin-1-yl)-7-(naphthalen-1-yl)-5,6,7,8-tetrahydropyrido[3,4-d]pyrimidin-2-yl)amino)-N-((1-(1-(4-(3-(2,4-dihydroxy-5-isopropylphenyl)-5-hydroxy-4H-1,2,4-triazol-4-yl)benzyl)piperidine-4-carbonyl)piperidin-4-yl)methyl)propanamide, trifluoroacetic acid]
10 | 0.1 to 1 µM | – | > 1 µM | – | CC(=O)N1CCN(c2nc(NCCC(=O)NCCOCCOc3ccc(-n4c(O)nnc4-c4cc(C(C)C)c(O)cc4O)cc3)nc3c2CCN(c2cc(O)cc4ccccc24)C3)CC1 [Compound 70, 3-((4-(4-acetylpiperazin-1-yl)-7-(3-hydroxynaphthalen-1-yl)-5,6,7,8-tetrahydropyrido[3,4-d]pyrimidin-2-yl)amino)-N-(2-(2-(4-(3-(2,4-dihydroxy-5-isopropylphenyl)-5-hydroxy-4H-1,2,4-triazol-4-yl)phenoxy)ethoxy)ethyl)propanamide, trifluoroacetic acid]
11 | 0.1 to 1 µM | – | > 1 µM | – | C=CC(=O)N1CCN(c2nc(NCCC(=O)NCCc3ccc(-n4c(O)nnc4-c4cc(C(C)C)c(O)cc4O)cc3)nc3c2CCN(c2cccc4ccccc24)C3)C[C@H]1CC#N [Compound 85, (R)-3-((4-(4-acryloyl-3-(cyanomethyl)piperazin-1-yl)-7-(naphthalen-1-yl)-5,6,7,8-tetrahydropyrido[3,4-d]pyrimidin-2-yl)amino)-N-(4-(3-(2,4-dihydroxy-5-isopropylphenyl)-5-hydroxy-4H-1,2,4-triazol-4-yl)phenethyl)propanamide, trifluoroacetic acid]
